According to a melting point compilation (Tetko et al.; mined from patent text by program, amines drawn as free bases though some values may be those of a salt):

melting point [°C]	SMILES
138 to 139	O=C1CCCCN1CCC(=O)N1CCC(C2c3ncc(Br)cc3CCc3cc(Cl)cc(Br)c32)CC1 (single isomer, unassigned; (+))
129 to 130	COc1cc(C(C)C)c(NC(=O)CN2CCN(CCCSc3nc4ccccc4o3)CC2)c(C(C)C)c1
146 to 148	CN1C(=O)C(C(=O)Nc2ccc(C(F)(F)F)cc2)S(=O)(=O)c2cc(F)ccc21 (configuration not stated)
183 to 187	Cc1cc(C)cc(NC(=O)Cc2ccc(OC(C)C(=O)O)cc2)c1 (configuration not stated)
> 300	CC(=O)Nc1ccc2c(c1)Cc1cc(=O)[nH]nc1-2
194 to 220	CC(=O)Nc1cc(C(=O)O)cc(C(F)(F)F)c1
155 to 157	C/C(=C(\C#N)C(N)=S)N1CCCN(c2ccccn2)CC1
160 to 163	Cn1ncc2nn(-c3cccc(C(F)(F)F)c3)c(=O)cc21
139 to 140	CNc1ncc(CO)c(NC2CC2)n1
154 to 155	OC(Cc1ccncc1)(c1ccccc1)c1ccccc1
142 to 144	O=C1N(CC2CCOCC2)c2ccccc2C12COc1cc3c(cc12)OCO3 (configuration not stated)
126 to 130	O=c1c2c(Cl)cc(Cl)cc2n(Cc2ccccc2)c(=O)n1Cc1ccccc1F
185 to 186	O=C(Nc1ccc(-n2nc(C(F)(F)F)cc2C(F)(F)F)cc1)N1CCOCC1
139 to 140	CN(CC(=O)O)C(=O)CCSC(=O)c1ccccc1
150	O=Cc1c(-c2ccccc2)nc2sc3c(n12)CCCC3
149 to 150	CCNc1nc(SC)nc(SC)c1[N+](=O)[O-]
> 350	O=c1c2c([nH]c3nc(N4CCCCC4)nn13)CCCS2
111 to 113	COCCOC[C@H](CC1(C(=O)O)CCCC1)C(=O)Oc1ccc2c(c1)CCC2
94 to 95.5	COc1ccc2c(-c3ccccc3)c(C(=O)c3ccccc3)sc2c1

melting point [°C]	SMILES
189	CCOC(=O)C(=CNN(C)C=O)C(=O)c1cc(F)c(F)c(F)c1F
134 to 136	N#Cc1ccc(OCc2ccsc2)cc1OC(C(=O)O)c1cccc(Cl)c1 (racemic)
214 to 216	Nc1n[nH]cc1-c1cccc(N2CCC(N3CCCC3)CC2)c1
60 to 63	Cc1ccc(S(=O)(=O)OCC2Cc3cccc(OS(=O)(=O)C(F)(F)F)c3O2)cc1 (configuration not stated)
143	Cc1c(OCc2ccc(CC(C)C)cc2)ccc(C(=O)Nc2ccccc2OCCCC(=O)O)c1C
178 to 179	COc1ccc(C(=O)N2c3ccccc3C(n3c4ccccc4c4ccccc43)CC2CCCCCN2CCN(c3ccc(F)cc3)CC2)cc1OC (configuration not stated)
290	COc1ccccc1Sc1c(O)nc(C)[nH]c1=O
79 to 86	CCCCc1oc2ccccc2c1C(=O)N(C)Cc1ccc(-c2ccc(OC(Cc3ccccc3)C(=O)O)c(Br)c2)cc1 (configuration not stated)
117 to 118	COc1ccc(C(=O)Cc2ccc(OC)c(F)c2)cc1
180	O=[N+]([O-])c1cc(Cl)cc(C(Cl)c2cc(Cl)cc([N+](=O)[O-])c2O)c1O
187 to 188	Cc1c(NC(=O)c2ccc(-c3ccc4c(c3)OCCO4)cc2)ccc2cc(CN3CCCC3)cnc12
297	Cc1sc(S(N)(=O)=O)cc1NC(=O)c1cnn2c(C(F)(F)F)cc(-c3ccc(C(F)(F)F)cc3)nc12
214 to 216	O=C1CCCCC1Oc1ccc(-c2c(-c3ccccc3)nn3ccccc23)nn1 (configuration not stated)
119 to 120	CCSc1cc(C)nc(SCC)c1NC(=O)CCCSc1nc2ccccc2s1
233 to 234	Cc1nc(-n2cnn(Cc3c(C)noc3C)c2=O)sc1C(=O)NCc1cccnc1
154 to 163	Cc1ccc(C(=O)Nc2ccc(-n3ccnc3C)c(C(F)(F)F)c2)cc1Nc1nccc(-c2cccnc2)n1
185 to 187	C=C1C(=O)NC(=O)N1c1ccc(Cl)cc1
90 to 92	Oc1ccc(Oc2ncc(Cl)cc2F)cc1
